Test results taken from patent US4909940A, “Extraction of process chemicals from labile biological mixtures with organic alcohols or with halogenated hydrocarbons” (priority 1987, dated 1990).
Like-named read-outs stand apart in the source and are kept apart here.

Experiments:
[1] = tested on: Vesicular stomatitis virus; assay: microbe, parasite or virus in culture; type: cell-based
[2] = tested on: AHF; assay: AHF retention after extraction of AHF concentrate with halogenated hydrocarbons; type: biochemical, human; conditions: 5% (w/v) halogenated hydrocarbon, 30 minutes, ambient
Description: (§2) An AHF concentrate prepared from human plasma was treated with 0.3% TNBP and either 1% "TRITON X-45" or 1% "TWEEN 80" to inactivate virus. Following treatment, the solution was extracted one time with 5% (w/v) of a halogenated hydrocarbon by mixing for a period of 30 minutes at ambient temperature. The quantity of residual AHF, TNBP and detergent present in the aqueous solution was measured and compared with the unextracted control.

[3] = Removal of TNBP from AHF concentrate with halogenated hydrocarbons; conditions: 0.3% TNBP; 5% (w/v) halogenated hydrocarbon, 30 minutes, ambient
Description: as §2

[4] = Removal of TRITON X-45 from AHF concentrate with halogenated hydrocarbons; conditions: 1% TRITON X-45; 5% (w/v) halogenated hydrocarbon, 30 minutes, ambient
Description: as §2

[5] = Removal of TWEEN 80 from AHF concentrate with halogenated hydrocarbons; conditions: 1% TWEEN 80; 5% (w/v) halogenated hydrocarbon, 30 minutes, ambient
Description: as §2

[6] = tested on: AHF; assay: AHF retention after extraction of AHF concentrate with alcohols; type: biochemical, human; conditions: 0.3% TNBP and 1% TRITON X-45; 10% (w/v) alcohol, 30 minutes, ambient
[7] = Removal of TRITON X-45 from AHF concentrate with alcohols; conditions: 0.3% TNBP and 1% TRITON X-45; 10% (w/v) alcohol, 30 minutes, ambient
[8] = water
[9] = Extraction of process chemicals from saline: TNBP; conditions: 1% TNBP in saline
[10] = Extraction of process chemicals from saline: TWEEN 80; conditions: 1% TWEEN 80 in saline
[11] = Extraction of process chemicals from saline: TRITON X45; conditions: 1% TRITON X45 in saline
[12] = Extraction of process chemicals from saline: TRITON X114; conditions: 1% TRITON X114 in saline
[13] = Extraction of process chemicals from saline: TRITON X100; conditions: 1% TRITON X100 in saline
[14] = Extraction of process chemicals from saline: Nonoxynol; conditions: 1% Nonoxynol in saline; 5% extractant
[15] = Extraction of process chemicals from plasma: TNBP; conditions: 2% TNBP in plasma
Source text: (§1) The results are in general agreement with those observed extracting from saline.

[16] = Extraction of process chemicals from plasma: TWEEN 80; conditions: 1% TWEEN 80 in plasma
Source text: as §1

[17] = Extraction of process chemicals from plasma: TRITON X45; conditions: 1% TRITON X45 in plasma
Source text: as §1

[18] = Extraction of process chemicals from plasma: TRITON X114; conditions: 1% TRITON X114 in plasma
Source text: as §1

[19] = Extraction of process chemicals from plasma: TRITON X100; conditions: 1% TRITON X100 in plasma
Source text: as §1

[20] = tested on: AHF; assay: Recovery of AHF procoagulant activity following extraction; type: biochemical; conditions: for AHF recovery: AHF concentrate or plasma; for AHF % Recovery / AHF Activity After: 5% extractant
[21] = Aqueous solubility of alcohols; conditions: water
[22] = tested on: red blood cells; assay: Red blood cell retention on extraction with FORANE; set-up: species or system human; conditions: 10% FORANE
[23] = Merocyanine removal from saline on extraction with FORANE; conditions: 10% FORANE
[24] = tested on: AHF; assay: AHF recovery after extraction of cryoprecipitate; type: biochemical; conditions: extracted two times, 10% FORANE or 10% FORANE and 5% heptanol; sterile filtered, lyophilized
[25] = Removal of TNBP from cryoprecipitate; conditions: extracted two times, 10% FORANE or 10% FORANE and 5% heptanol; lyophilized
[26] = Removal of TRITON X-45 from cryoprecipitate; conditions: extracted two times, 10% FORANE or 10% FORANE and 5% heptanol; lyophilized
[27] = tested on: AHF; assay: Protein functional activity after extraction of plasma: AHF; type: biochemical; conditions: 10% extractant, 30 minutes, ambient
[28] = tested on: Factor IX; assay: Protein functional activity after extraction of plasma: Factor IX; type: biochemical; conditions: 10% extractant, 30 minutes, ambient
Description: (§3) Plasma was extracted with either 10% "FORANE" or 10% 2-octanol for 30 minutes at ambient temperature.

[29] = tested on: Antithrombin III; assay: Protein functional activity after extraction of plasma: Antithrombin III; type: biochemical; conditions: 10% extractant, 30 minutes, ambient
Description: as §3

[30] = tested on: AHF; assay: AHF activity retained after depyrogenation extraction; type: biochemical; conditions: 10% (v/v) extractant, 30 minutes, 24° C.
Description: AHF concentrate containing 6.4 ng/ml of endotoxin was extracted by mechanically shaking with 10% (v/v) 2-octanol or "FORANE" for 30 minutes at 24° C. After separation of the extractant by centrifugation, the pyrogen level was determined by the Limulus Amebocyte Lysate assay with a sensitivity of 0.025 ng/ml of endotoxin. The effect of these treatments is shown below in Table XI. […] More than 90% of the original AHF activity was retained following the extraction.

CCCCN1C(=O)C(=CC=CC=C2Oc3ccccc3N2CCCS(=O)(=O)O)C(=O)N(CCCC)C1=S [merocyanine 540]
Final Virus Titer [1]: < -0.5
Virus titer, Control (no light) [1]: 3.7
log reduction at 40 µg/mL ([1]; Vesicular stomatitis virus, 1 h, read-out: Total Virus Kill): > 4.2

FC(F)(F)C(F)(F)C(F)(F)C(F)(F)N(C(F)(F)C(F)(F)C(F)(F)C(F)(F)F)C(F)(F)C(F)(F)C(F)(F)C(F)(F)F [Perfluorotributyl amine]
% Retention AHF [2]: 112%
Percent Removal TNBP [3]: 31%
Percent Removal TRITON X-45 [4]: 0%
Percent Removal TWEEN 80 [5]: 3%

FC(F)OC(F)(F)C(F)Cl (stereo not shown) [Ethrane, 2-chloro-1,1,2-trifluoroethyl difluoromethyl ether]
% Retention AHF [2]: 100%
Percent Removal TNBP [3]: 99%
Percent Removal TRITON X-45 [4]: 99%

FC(F)(F)C(F)(F)C(F)(F)C(F)(F)C(F)(F)C(F)(F)F [Perfluorohexane]
% Retention AHF [2]: 98%
Percent Removal TNBP [3]: 27%
Percent Removal TRITON X-45 [4]: 0%
Percent Removal TWEEN 80 [5]: 0%

FC(F)(Cl)C(F)(Cl)Cl [1,2,2-Trifluorotrichloroethane, 1,2,2-trifluorotrichloroethane]
% Retention AHF [2]: 98%
Percent Removal TNBP [3]: 93%
Percent Removal TRITON X-45 [4]: 8%
Percent Removal TWEEN 80 [5]: 3%

FC1(F)C(F)(F)C(F)(F)C2(F)C(F)(F)C(F)(F)C(F)(F)C(F)(F)C2(F)C1(F)F (stereo not shown) [Perfluorodecalin]
% Retention AHF [2]: 107%
Percent Removal TNBP [3]: 14%
Percent Removal TRITON X-45 [4]: 0%
Percent Removal TWEEN 80 [5]: 0%

CCCCCO [amyl alcohol]
AHF (% Retention) [6]: 1%
TRITON X-45 (% Removal) [7]: 100%
Aqueous Solubility [8]: 2.3 g %

CCCCCO [1-pentanol]
Percent Extraction ([9]; 5% extractant): 99%
Percent Extraction ([10]; 5% extractant): 28-42%
Percent Extraction ([11]; 5% extractant): 97%
Percent Extraction ([12]; 5% extractant): 91%
Percent Extraction ([13]; 5% extractant): 92%
Percent Extraction [14]: 92%
Percent Extraction ([15]; 5% extractant): 98%
Percent Extraction ([16]; 5% extractant): 7%
Percent Extraction ([17]; 5% extractant): 80%
Percent Extraction ([18]; 5% extractant): 75%
Percent Extraction ([19]; 5% extractant): 65%
AHF recovery [20]: approximately 1%
AHF % Recovery ([20]; AHF concentrate): 1%
AHF Activity After ([20]; AHF concentrate): 0.02 units/mL
AHF % Recovery ([20]; plasma): 1%
AHF Activity After ([20]; plasma): 0.01 units/mL

CC(C)CCO [isoamyl alcohol]
AHF (% Retention) [6]: 1%
TRITON X-45 (% Removal) [7]: 100%
Aqueous Solubility [21]: 2.0 g %

CCCCCCCCCCCO [undecanol]
AHF (% Retention) [6]: 94%
TRITON X-45 (% Removal) [7]: 100%
Aqueous Solubility [21]: < 0.05 g %

CCCCCCCCCO [1-nonanol]
AHF (% Retention) [6]: 100%
TRITON X-45 (% Removal) [7]: 100%

FC(F)OC(Cl)C(F)(F)F (stereo not shown) [FORANE, 1-chloro-2,2,2-trifluoroethyl difluoromethyl ether]
Percent Extraction ([9]; 5% extractant): 99%
Percent Extraction ([9]; 20% extractant): 99%
Percent Extraction ([10]; 5% extractant): 85%
Percent Extraction ([10]; 20% extractant): 87%
Percent Extraction ([11]; 5% extractant): 99%
Percent Extraction ([11]; 20% extractant): 99%
Percent Extraction ([12]; 5% extractant): 99%
Percent Extraction ([12]; 20% extractant): 99%
Percent Extraction ([13]; 5% extractant): 99%
Percent Extraction ([13]; 20% extractant): 99%
Percent Extraction ([15]; 5% extractant): 94%
Percent Extraction ([15]; 20% extractant): 96%
Percent Extraction ([16]; 20% extractant): 66%
Percent Extraction ([17]; 5% extractant): 91%
Percent Extraction ([17]; 20% extractant): 99%
Percent Extraction ([18]; 5% extractant): 96%
Percent Extraction ([18]; 20% extractant): 96%
Percent Extraction ([19]; 5% extractant): 95%
Percent Extraction ([19]; 20% extractant): 96%
AHF recovery [20]: ~100%
AHF % Recovery ([20]; AHF concentrate): 102%
AHF Activity After ([20]; AHF concentrate): 2.69 units/mL
% Retention AHF [2]: 100%
Percent Removal TNBP [3]: 99%
Percent Removal TRITON X-45 [4]: 99%
Percent Removal TWEEN 80 [5]: 87%
Red Blood Cell Retention [22]: 97%
Merocyanine % Removal [23]: 83%
AHF recovery [24]: 95%
Percent Removal TNBP [25]: 99.88%
Percent Removal TRITON X-45 [26]: 96%
% Retention AHF [27]: 98%
% Retention Factor IX [28]: 99%
% Retention Antithrombin III [29]: 100%
original AHF activity retained [30]: More than 90%

CCCCCCO [hexanol]
AHF (% Retention) [6]: 63%
TRITON X-45 (% Removal) [7]: 100%

CCCCCCCCO [1-octanol]
AHF (% Retention) [6]: 96%
TRITON X-45 (% Removal) [7]: 100%
Aqueous Solubility [21]: 0.05 g %

CCCCCCCO [heptanol]
AHF (% Retention) [6]: 98%
TRITON X-45 (% Removal) [7]: 100%
Aqueous Solubility [8]: 0.2 g %

CCCCCCC(C)O (stereo not shown) [2-octanol]
Percent Extraction ([9]; 5% extractant): 99%
Percent Extraction ([10]; 5% extractant): 0-12%
Percent Extraction ([11]; 5% extractant): 83-96%
Percent Extraction ([12]; 5% extractant): 94%
Percent Extraction ([13]; 5% extractant): 60%
Percent Extraction [14]: 49%
Percent Extraction ([15]; 5% extractant): 98%
Percent Extraction ([16]; 5% extractant): 21%
Percent Extraction ([17]; 5% extractant): 62%
Percent Extraction ([18]; 5% extractant): 33%
Percent Extraction ([19]; 5% extractant): 19%
AHF recovery [20]: approximately 90%
AHF % Recovery ([20]; AHF concentrate): 89%
AHF Activity After ([20]; AHF concentrate): 2.35 units/mL
AHF % Recovery ([20]; plasma): 91%
AHF Activity After ([20]; plasma): 1.15 units/mL
AHF (% Retention) [6]: 93%
TRITON X-45 (% Removal) [7]: 100%
% Retention AHF [27]: 95%
% Retention Factor IX [28]: 99%
% Retention Antithrombin III [29]: 100%
original AHF activity retained [30]: More than 90%
Aqueous Solubility [21]: 0.05 g %

CCCCCCCCCCO [1-decanol]
AHF (% Retention) [6]: 100%
TRITON X-45 (% Removal) [7]: 100%
Aqueous Solubility [21]: < 0.05 g %
